Read-outs that look alike come from different tables or passages of the source.

For series [1], the target named is T1, Cqui\Orco + Cqui\Or10 (Culex quinquefasciatus, UniProt D5LMR7+Q309I4). In words: Activation of Cqui\Orco + Cqui\Or10 in Xenopus oocytes, two-electrode voltage clamp. The settings on record: for Emax at 100 µM: 100 µM compound, mean ± SEM, n=3-8, read-out: Response amplitude as percentage of response to 100 µM OLC3, Cqui\Orco + Cqui\Or10. The series is classed as cell-based. As to the method: (§1) Oocytes were surgically removed from mature Xenopus laevis frogs. Follicle cells were removed by treatment with Collagenase B (Boehringer Mannhem) for 2 hours at room temperature. Capped cRNA encoding each DmOR subunit was generated using mMessage mMachine kits (Ambion). For heteromeric ORs, 25 ng of cRNA encoding each OR subunit was injected into Stage V-VI Xenopus oocytes. For expression of Orco alone, 50 ng of cRNA was injected. Oocytes were incubated at 18°C in Barth’s saline (in mM: 88 NaCl, 1 KCl, 2.4 NaHCO3, 0.3 CaNO3, 0.41 CaCl2, 0.82 MgSO4, 15 HEPES, pH 7.6, and 150 µg/ml ceftazidime) for 2–5 days prior to electrophysiological recording.
T1 sequence (D5LMR7 entry or part of it): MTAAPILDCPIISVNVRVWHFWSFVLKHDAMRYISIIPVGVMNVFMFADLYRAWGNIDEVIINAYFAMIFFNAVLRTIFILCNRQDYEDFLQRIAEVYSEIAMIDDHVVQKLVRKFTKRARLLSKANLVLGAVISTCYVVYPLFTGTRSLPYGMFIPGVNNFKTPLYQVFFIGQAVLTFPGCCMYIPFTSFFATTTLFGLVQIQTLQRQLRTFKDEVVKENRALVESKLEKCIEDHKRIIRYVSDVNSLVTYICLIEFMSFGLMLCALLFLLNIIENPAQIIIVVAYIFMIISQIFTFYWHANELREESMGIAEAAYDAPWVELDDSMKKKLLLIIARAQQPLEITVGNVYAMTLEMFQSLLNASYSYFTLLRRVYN
T1 sequence (Q309I4 entry or part of it): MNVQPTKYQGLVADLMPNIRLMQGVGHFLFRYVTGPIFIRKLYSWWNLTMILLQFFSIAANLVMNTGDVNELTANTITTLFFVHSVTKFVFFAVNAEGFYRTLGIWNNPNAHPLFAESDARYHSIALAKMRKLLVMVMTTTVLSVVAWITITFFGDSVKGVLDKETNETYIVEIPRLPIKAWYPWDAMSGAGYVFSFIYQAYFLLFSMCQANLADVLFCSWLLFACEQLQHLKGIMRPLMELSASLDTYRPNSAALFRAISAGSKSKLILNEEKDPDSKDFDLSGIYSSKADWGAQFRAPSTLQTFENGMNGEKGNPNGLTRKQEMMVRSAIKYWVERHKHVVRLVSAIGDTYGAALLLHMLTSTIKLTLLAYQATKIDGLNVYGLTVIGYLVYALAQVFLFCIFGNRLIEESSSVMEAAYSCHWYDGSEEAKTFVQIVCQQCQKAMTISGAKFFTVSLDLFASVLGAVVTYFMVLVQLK
(§2) Odorant and Orco ligand induced currents were recorded under two-electrode voltage clamp in Xenopus laevis oocytes expressing ORs, using an automated parallel electrophysiology system (OpusExpress 6000A; Molecular Devices). Oocytes were perfused with ND96 (in mM: 96 NaCl, 2 KCl, 1 CaCl2, 1 MgCl2, 5 HEPES, pH 7.5). Odorant stock solutions (0.5 or 1 M) and Orco ligand stock solutions (100 mM) were prepared in DMSO and diluted in ND96. Unless otherwise noted, applications were for 60 sec at a flow rate of 1.0 ml/min, with extensive washing in ND96 (9 or 20 min at 4.6 ml/min) between applications. Micropipettes were filled with 3 M KCl and had resistances of 0.2−2.0 MΩ. The holding potential was −70 mV. Current responses, filtered (4-pole, Bessel, low pass) at 20 Hz (−3 db) and sampled at 100 Hz, were captured and stored using OpusXpress 1.1 software (Molecular Devices).
(§3) Initial analysis of electrophysiological data was done using Clampfit 9.1 software (Molecular Devices). Curve fitting and statistical analyses were done using Prism 5 (Graphpad). Concentration-response data were fit to the equation: I = Imax/(1+(EC50/X)^n) where I represents the current response at a given concentration of odorant, X; Imax is the maximal response; EC50 is the concentration of agonist yielding a half maximal response; n is the apparent Hill coefficient. Concentration-inhibition data were fit to the equation: I = Imax/(1+(X/IC50)^n) where I represents the current response at a given concentration of inhibitor, X; Imax is the maximal response in the absence of inhibitor; IC50 is the concentration of inhibitor present that still allows a half maximal response from odorant; n is the apparent Hill coefficient. Statistical significance was assessed using a two-tailed unpaired t test, an F test, or a one-way analysis of variance followed by the Bonferroni’s post-test, as appropriate.
In general terms: Two-electrode voltage clamp holds a large cell at a set potential and records current.

The target in series [2] is T1, Cqui\Orco + Cqui\Or10. Also noted: method as in PMID 20623327. The settings on record: read-out: EC50 for activation of Cqui\Orco+Cqui\Or10 by 3-methylindole; cited from earlier work.
In series [3] the target is T2, Dmel\Orco (Drosophila melanogaster, UniProt Q9VNB5).
T2 construct: expressed in transfected cells; host or cells: Xenopus laevis oocytes (cRNA injection, pGEMHE)
T2 sequence (Q9VNB5 1-486): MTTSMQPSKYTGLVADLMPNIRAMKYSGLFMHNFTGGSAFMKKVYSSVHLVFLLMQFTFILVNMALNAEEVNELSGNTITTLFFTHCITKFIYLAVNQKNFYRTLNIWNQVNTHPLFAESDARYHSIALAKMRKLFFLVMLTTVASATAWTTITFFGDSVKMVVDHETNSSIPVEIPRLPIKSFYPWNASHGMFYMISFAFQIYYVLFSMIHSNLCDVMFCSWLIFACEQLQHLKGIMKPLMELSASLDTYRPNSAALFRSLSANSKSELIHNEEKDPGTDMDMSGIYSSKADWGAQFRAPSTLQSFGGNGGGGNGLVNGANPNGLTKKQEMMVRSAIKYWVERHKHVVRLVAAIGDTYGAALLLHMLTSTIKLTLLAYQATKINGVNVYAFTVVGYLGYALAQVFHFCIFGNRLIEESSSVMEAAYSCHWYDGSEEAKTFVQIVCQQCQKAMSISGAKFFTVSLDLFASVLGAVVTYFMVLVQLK
In words: Agonist activation of homomeric Dmel\Orco in Xenopus oocytes, two-electrode voltage clamp. The series is classed as cell-based. The settings on record: for EC50: concentration-response, responses normalized to 30 µM OLC3, saturation not obtained for OLC3 and VUAA1; for Emax at 100 µM: read-out: Response amplitude as percentage of response to 100 µM OLC3, Dmel\Orco. As to the method: as §1, §2, §3

For series [4], the target named is T3, Dmel\Orco + Dmel\Or35a (Drosophila melanogaster, UniProt Q9VNB5).
T3 construct: expressed in transfected cells; host or cells: Xenopus laevis oocytes (cRNA injection, pGEMHE)
T3 sequence (Q9VNB5 1-486): T2 sequence (Q9VNB5 1-486)
T3 sequence (Q9V3Q2 1-409 partner): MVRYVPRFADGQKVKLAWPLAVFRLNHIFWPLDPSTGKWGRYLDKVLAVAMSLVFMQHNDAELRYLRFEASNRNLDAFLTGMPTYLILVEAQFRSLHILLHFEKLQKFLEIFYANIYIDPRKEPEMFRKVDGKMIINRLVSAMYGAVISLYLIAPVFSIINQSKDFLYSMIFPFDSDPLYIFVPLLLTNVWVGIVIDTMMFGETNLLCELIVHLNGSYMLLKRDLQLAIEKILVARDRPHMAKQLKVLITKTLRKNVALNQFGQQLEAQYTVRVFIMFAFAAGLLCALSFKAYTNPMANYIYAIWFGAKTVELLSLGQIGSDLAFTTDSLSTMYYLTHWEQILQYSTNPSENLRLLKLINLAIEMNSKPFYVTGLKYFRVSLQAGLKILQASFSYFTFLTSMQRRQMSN
Briefly: Agonist activation of Dmel\Orco + Dmel\Or35a in Xenopus oocytes, two-electrode voltage clamp. In kind it is cell-based. The note with it: for EC50: concentration-response, responses normalized to 30 µM OLC3; for Emax at 100 µM: read-out: Response amplitude as percentage of response to 100 µM OLC3, Dmel\Orco + Dmel\Or35a. As for the experimental part:
as §1, §2, §3

Series [5] in a line: Solubility in recording solution (observation). In kind it is physicochemical. The note with it: aqueous recording solution, higher concentrations (OLC2: above 100 µM). As for the experimental part:
as §2

Series [6] deals with sham (water) injected oocytes. In words: Response of sham (water) injected oocytes to Orco ligands. The series is classed as cell-based, Xenopus laevis. The note with it: 100 µM, 60 sec application. As to the method:
as §1, §2

Another series deals with Cqui\Orco. Briefly: Agonist activation of homomeric Cqui\Orco in Xenopus oocytes, two-electrode voltage clamp. In kind it is cell-based, Culex quinquefasciatus. The note with it: 100 µM compound; mean ± SEM, n=3-8.
In another series the test system is Onub\Orco + Onub\Or1. In words: Agonist activation of Onub\Orco + Onub\Or1 in Xenopus oocytes, two-electrode voltage clamp. The settings on record: 100 µM compound; mean ± SEM, n=3-8. In kind it is cell-based, Ostrinia nubilalis.
For series [7], the target named is T2, Dmel\Orco. Briefly: Inhibition of OLC12 activation of Dmel\Orco in Xenopus oocytes. In kind it is cell-based. The settings on record: activated by 30 µM OLC12 (EC39). As to the method:
as §1, §2
(§4) In inhibition assays, oocytes were exposed to 60 sec applications of OLC12 with 9 min washes between applications (Fig. 3 and 4) or 60 sec applications of odorant with 20 min washes between applications (Fig. 5). Oocytes were then exposed to a 90 sec application of antagonist candidate, immediately followed by a 60 sec co-application of antagonist candidate and OLC12 or odorant. Oocytes were then exposed to a final 60 sec application of OLC12 or odorant. The current response in the presence of antagonist candidate was compared to the preceding response(s) to OLC12 (or odorant) alone.
as §3

Series [8] has as its target T3, Dmel\Orco + Dmel\Or35a. Briefly: Inhibition of OLC12 activation of Dmel\Orco + Dmel\Or35a in Xenopus oocytes. In kind it is cell-based. The note with it: activated by 10 µM OLC12 (EC25); read-out: IC50, Dmel\Orco + Dmel\Or35a (activated by 10 µM OLC12). As to the method:
as §1, §2, §4, §3

Series [9] concerns the target T3, Dmel\Orco + Dmel\Or35a. In words: Inhibition of odorant (hexanol) activation of Dmel\Orco + Dmel\Or35a in Xenopus oocytes. The series is classed as cell-based. The settings on record: 3 µM hexanol; OLC2 100 µM, OLC15 50 µM, OLC20 200 µM. As to the method: as §1, §2
In inhibition assays, oocytes were exposed to 60 sec applications of OLC12 with 9 min washes between applications (Fig. 3 and 4) or 60 sec applications of odorant with 20 min washes between applications (Fig. 5). […]
Initial analysis of electrophysiological data was done using Clampfit 9.1 software (Molecular Devices). […] Statistical significance was assessed using a two-tailed unpaired t test, an F test, or a one-way analysis of variance followed by the Bonferroni’s post-test, as appropriate.

By EC50 is commonly meant the midpoint of the concentration-response curve. On to `Cc1c[nH]c2ccccc12` [3-methylindole, reference compound], for which the concentration giving a half-maximal response (EC50) at Cqui\Orco + Cqui\Or10 [1] (absence of OLC15, read-out: EC50 for 3-MI activation of Cqui\Orco + Cqui\Or10) is 0.313 ± 0.103 µM; on Cqui\Orco + Cqui\Or10 [1] (in presence of 3 µM OLC15, read-out: EC50 for 3-MI activation of Cqui\Orco + Cqui\Or10 in presence of OLC15), 0.275 ± 0.041 µM; at Cqui\Orco + Cqui\Or10 [2], 0.09 ± 0.017 µM.
In the case of `CCc1ccc(NC(=O)CSc2nnc(-c3ccncc3)n2CC)cc1` [OLC3], the EC50 on Dmel\Orco [3] turned out to be 346 ± 126 µM; at Dmel\Orco + Dmel\Or35a [4], 56 ± 8 µM. Besides, the Emax at 100 µM on Dmel\Orco [3], on Dmel\Orco + Dmel\Or35a [4] and on Cqui\Orco + Cqui\Or10 [1] was 100% in each case. In series [5], the Solubility entry is reported as “not fully soluble at higher concentrations”. Further, in [6], the “Response of sham (water) injected oocytes” value (from here on “Response of sham”) is “No responses”. Moreover, in the series on Cqui\Orco, the “Response amplitude as percentage of response to 100 µM OLC3, Cqui\Orco” value (shortened to “Response amplitude as percentage … Cqui\Orco”) stood at 100%. The “Response amplitude as percentage of response to 100 µM OLC3, Onub\Orco + Onub\Or1” value in the series with Onub\Orco + Onub\Or1 was found to be 100%.
By IC50 is commonly meant the concentration that inhibits the measured activity by half. Turning to `CCCCc1ccc(NC(=O)CSc2nnc(-c3cccnc3)n2CC)cc1` [OLC9], the Emax at 100 µM at Dmel\Orco [3] was 0%; on Dmel\Orco + Dmel\Or35a [4], 5 ± 2%; on Cqui\Orco + Cqui\Or10 [1] it was 0%. Further, the “Response amplitude as percentage … Cqui\Orco” value with Cqui\Orco worked out at 0%. For the same compound, the “Response amplitude as percentage of response to 100 µM OLC3, Onub\Orco + Onub\Or1” value in the series on Onub\Orco + Onub\Or1 is given as 3 ± 1%. For the same compound, the half-inhibitory concentration (IC50) against Dmel\Orco [7] was 69 ± 7 µM; at Dmel\Orco + Dmel\Or35a [8], 40 ± 9 µM.
For `CCn1c(SCC(=O)Nc2ccc(C(C)C)cc2)nnc1-c1ccncc1` [OLC12], the half-maximal effective concentration (EC50) came to 35 ± 3 µM on Dmel\Orco [3] and 18 ± 3 µM on Dmel\Orco + Dmel\Or35a [4]. Moreover, the results for the Emax at 100 µM at Dmel\Orco [3], on Dmel\Orco + Dmel\Or35a [4] and at Cqui\Orco + Cqui\Or10 [1] were 318 ± 12%, 300 ± 41% and 289 ± 41%, respectively. In series [6], the “Response of sham” value was “No responses”. Also, in the series on Cqui\Orco, the “Response amplitude as percentage … Cqui\Orco” value is 636 ± 78%. For the same compound, in the series on Onub\Orco + Onub\Or1, the “Response amplitude as percentage of response to 100 µM OLC3, Onub\Orco + Onub\Or1” value was 306 ± 33%.
As to `CCc1ccc(NC(=O)c2cccs2)cc1` [OLC20], the Emax at 100 µM on Dmel\Orco [3] is 0%; at Dmel\Orco + Dmel\Or35a [4] it was 0%; on Cqui\Orco + Cqui\Or10 [1], 11 ± 4%. The “Inhibition of the hexanol response of Dmel\Orco+Dmel\Or35a” value on Dmel\Orco + Dmel\Or35a [9] is “substantial inhibition”. The “Response amplitude as percentage … Cqui\Orco” value in the series with Cqui\Orco is recorded as 0%. Besides, the results for the half-maximal inhibitory concentration (IC50) at Dmel\Orco [7] and on Dmel\Orco + Dmel\Or35a [8] were 57 ± 19 µM and 55 ± 15 µM, respectively.
On to `CCCCc1ccc(NC(=O)c2cccs2)cc1` [OLC22], for which the Emax at 100 µM on Dmel\Orco [3], at Dmel\Orco + Dmel\Or35a [4] and on Cqui\Orco + Cqui\Or10 [1] was 0% each time. Also, the “Response amplitude as percentage … Cqui\Orco” value with Cqui\Orco is 0%. Besides, the half-inhibitory concentration (IC50) at Dmel\Orco [7] worked out at 52 ± 18 µM; on Dmel\Orco + Dmel\Or35a [8] it was 26 ± 4 µM.
On to `CCc1ccc(NC(=O)CSc2nnc(-c3cccnc3)n2CC)cc1` [VUAA1, reference compound], for which the concentration giving a half-maximal response (EC50) was 190 ± 30 µM on Dmel\Orco [3] and 57 ± 13 µM on Dmel\Orco + Dmel\Or35a [4]. For the same compound, the Emax at 100 µM was 24 ± 7% at Dmel\Orco [3], 50 ± 9% on Dmel\Orco + Dmel\Or35a [4] and 75 ± 3% at Cqui\Orco + Cqui\Or10 [1]. For the same compound, in series [5], the Solubility result is on record as “not fully soluble at higher concentrations”. Besides, the “Response of sham” value in series [6] is “No responses”. Also, the “Response amplitude as percentage … Cqui\Orco” value in the series on Cqui\Orco is given as 18 ± 8%. In the series on Onub\Orco + Onub\Or1, the “Response amplitude as percentage of response to 100 µM OLC3, Onub\Orco + Onub\Or1” value was found to be 60 ± 6%.

Source of the values: publication PMC3348135, “Identification of New Agonists and Antagonists of the Insect Odorant Receptor Co-Receptor Subunit” (PLoS ONE, 2012).
